Measurements published in PubChem BioAssay AID1963958 (Molecular Pharmacology Branch, DTP, NCI, 2024).
pIC50: −log10 of the molar value. Blank lines part the entries; values can stand above or below the molecule they belong to.

Tested on: MDA-MB-231 multicell spheroids, viability
Assay: Anticancer human tumor MDA-MB-231 cell line growth inhibition [PI3K];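 further: spheroids exposed to agents for seven days before reading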;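 on viability, T/C: percent of vehicle control luminescence with DMSO treated spheroids as 100%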
Settings: for pIC50: curve of first compound; for viability, T/C: stronger effect = lower value
How it was run: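 Viability of mixed-cell spheroids was determined after exposure to pairwise combinations, one partner being inavolisib, alpelisib, duvelisib or copanlisib. Highest tested concentration matched clinical Cmax where known and 10 microM where not, descending in half-log steps.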

[1] = second compound 0.0316 µM, first compound 0.000316 µM
[2] = second compound 0.0316 µM, first compound 0.001 µM
[3] = second compound 0.0316 µM, first compound 0.00316 µM
[4] = second compound 0.0316 µM, first compound 0.01 µM
[5] = second compound 0.0316 µM, first compound 0.0316 µM
[6] = second compound 0.0316 µM, first compound 0.1 µM
[7] = second compound 0.1 µM, first compound 0.000316 µM
[8] = second compound 0.1 µM, first compound 0.001 µM
[9] = second compound 0.1 µM, first compound 0.00316 µM
[10] = second compound 0.1 µM, first compound 0.01 µM
[11] = second compound 0.1 µM, first compound 0.0316 µM
[12] = second compound 0.1 µM, first compound 0.1 µM
[13] = second compound 0.316 µM, first compound 0.000316 µM
[14] = second compound 0.316 µM, first compound 0.001 µM
[15] = second compound 0.316 µM, first compound 0.00316 µM
[16] = second compound 0.316 µM, first compound 0.01 µM
[17] = second compound 0.316 µM, first compound 0.0316 µM
[18] = second compound 0.316 µM, first compound 0.1 µM
[19] = second compound 1 µM, first compound 0.000316 µM
[20] = second compound 1 µM, first compound 0.001 µM
[21] = second compound 1 µM, first compound 0.00316 µM
[22] = second compound 1 µM, first compound 0.01 µM
[23] = second compound 1 µM, first compound 0.0316 µM
[24] = second compound 1 µM, first compound 0.1 µM
[25] = second compound 3.16 µM, first compound 0.000316 µM
[26] = second compound 3.16 µM, first compound 0.001 µM
[27] = second compound 3.16 µM, first compound 0.00316 µM
[28] = second compound 3.16 µM, first compound 0.01 µM
[29] = second compound 3.16 µM, first compound 0.0316 µM
[30] = second compound 3.16 µM, first compound 0.1 µM
[31] = second compound 10 µM, first compound 0.000316 µM
[32] = second compound 10 µM, first compound 0.001 µM
[33] = second compound 10 µM, first compound 0.00316 µM
[34] = second compound 10 µM, first compound 0.01 µM
[35] = second compound 10 µM, first compound 0.0316 µM
[36] = second compound 10 µM, first compound 0.1 µM

pIC50 (second compound 0.0316 µM): < 7.00
pIC50 (second compound 0.1 µM): 7.06
pIC50 (second compound 0.316 µM): 7.12
pIC50 (second compound 1 µM): 7.44
pIC50 (second compound 3.16 µM): 7.94
pIC50 (second compound 10 µM): > 9.50
Structure (SMILES): CC(=O)c1c(C)c2cnc(Nc3ccc(N4CCNCC4)cn3)nc2n(C2CCCC2)c1=O + CC(Nc1ncnc2nc[nH]c12)c1cc2cccc(Cl)c2c(=O)n1-c1ccccc1
viability, T/C [1]: 96.8%
viability, T/C [2]: 107%
viability, T/C [3]: 92.6%
viability, T/C [4]: 90.6%
viability, T/C [5]: 72.8%
viability, T/C [6]: 53.2%
viability, T/C [7]: 98.8%
viability, T/C [8]: 99.6%
viability, T/C [9]: 96.1%
viability, T/C [10]: 80.5%
viability, T/C [11]: 71.3%
viability, T/C [12]: 46.5%
viability, T/C [13]: 86.8%
viability, T/C [14]: 90%
viability, T/C [15]: 92.6%
viability, T/C [16]: 83.5%
viability, T/C [17]: 66.6%
viability, T/C [18]: 44.6%
viability, T/C [19]: 79.2%
viability, T/C [20]: 79.9%
viability, T/C [21]: 78.4%
viability, T/C [22]: 65.1%
viability, T/C [23]: 52.9%
viability, T/C [24]: 36%
viability, T/C [25]: 62.5%
viability, T/C [26]: 60.1%
viability, T/C [27]: 55.3%
viability, T/C [28]: 51.1%
viability, T/C [29]: 43.1%
viability, T/C [30]: 29.6%
viability, T/C [31]: 42.6%
viability, T/C [32]: 47.5%
viability, T/C [33]: 41.2%
viability, T/C [34]: 38%
viability, T/C [35]: 36.1%
viability, T/C [36]: 19%

pIC50 (second compound 0.0316 µM): 7.19
pIC50 (second compound 0.1 µM): 7.18
pIC50 (second compound 0.316 µM): 7.28
pIC50 (second compound 1 µM): 7.49
pIC50 (second compound 3.16 µM): 7.90
pIC50 (second compound 10 µM): > 9.50
Structure (SMILES): CC(C)n1nc(-c2ccc3oc(N)nc3c2)c2c(N)ncnc21 + CC(Nc1ncnc2nc[nH]c12)c1cc2cccc(Cl)c2c(=O)n1-c1ccccc1
viability, T/C [1]: 94.1%
viability, T/C [2]: 101%
viability, T/C [3]: 93.1%
viability, T/C [4]: 85.6%
viability, T/C [5]: 65.5%
viability, T/C [6]: 40.5%
viability, T/C [7]: 101%
viability, T/C [8]: 100%
viability, T/C [9]: 91.9%
viability, T/C [10]: 79.7%
viability, T/C [11]: 66.2%
viability, T/C [12]: 41%
viability, T/C [13]: 91.7%
viability, T/C [14]: 90.2%
viability, T/C [15]: 87.2%
viability, T/C [16]: 72.8%
viability, T/C [17]: 58.8%
viability, T/C [18]: 39.4%
viability, T/C [19]: 80.5%
viability, T/C [20]: 78%
viability, T/C [21]: 76.1%
viability, T/C [22]: 68.5%
viability, T/C [23]: 50%
viability, T/C [24]: 39.2%
viability, T/C [25]: 62.1%
viability, T/C [26]: 64.9%
viability, T/C [27]: 57.8%
viability, T/C [28]: 50.8%
viability, T/C [29]: 43.4%
viability, T/C [30]: 31.8%
viability, T/C [31]: 49.2%
viability, T/C [32]: 44.6%
viability, T/C [33]: 42.4%
viability, T/C [34]: 35.9%
viability, T/C [35]: 30.1%
viability, T/C [36]: 24.2%
